Reference: publication PMC12040169 (PLOS Biology, 2025)

Experiment: in vitro
Conditions: human, hela cells, % viability

| Structure (SMILES) | viability at 28.5 h, 10 µM |
| --- | --- |
| CN1CCN(c2cccc(-c3ccccc3Oc3ccccc3)n2)CC1 [CBK037598] | 101% |
| COc1ncc(-c2cccc(N(C)CCN(C)C)n2)c(OC)n1 [CBK037599] | 99.1% |
| CC(C)CNc1ccc(-c2cccc(N(C)C)c2)cn1 [CBK037603] | 76.9% |
| O=C(NC(CN1CCOCC1)c1ccccc1)c1cnc(-c2ccc(Cl)cc2)c(-c2ccncc2)c1 (stereo not drawn) [CBK037604] | 100% |
| O=C(NCc1ccc(Cl)cc1)c1cnc(-c2cccc(C(F)(F)F)c2)c(-c2ccncc2)c1 [CBK037607] | 84.8% |
| COc1cc(C)c(Nc2cccc(-c3ccc(O)cc3)n2)cc1OC [CBK037608] | 107% |
| CN(C)CCN1CCN(c2cccc(-c3ccc(-c4ccccc4)cc3)n2)CC1 [CBK037610] | 103% |
| CN1CCN(c2ccc(-c3cccc(N(C)C)c3)cn2)CC1 [CBK037621] | 102% |
| COC(=O)C(NC(=O)c1cnc(-c2cccc(C(F)(F)F)c2)c(-c2ccncc2)c1)c1ccccc1 (stereo not drawn) [CBK037624] | 98.9% |
| c1cc(-c2nccnc2NCC2CCCCC2)ccn1 [CBK037627] | 99.4% |
| Fc1cccc(-c2nccnc2NCc2cccnc2)c1 [CBK037633] | 88.3% |
| c1cncc(CNc2nccnc2-c2ccoc2)c1 [CBK037635] | 96.4% |
| c1cncc(Nc2cccc(-c3cnc4ccccc4c3)n2)c1 [CBK037638] | 98.8% |
| CN1CCN(c2cccc(-c3ccc(CNC(=O)OC(C)(C)C)cc3)n2)CC1 [CBK037641] | 95.2% |
| COc1ccc(-c2cccc(Nc3cccnc3)n2)cc1OC [CBK037644] | 94.6% |
| Oc1cccc(-c2nccnc2NCc2ccc(Cl)cc2)c1 [CBK037650] | 92.8% |
| COc1cc(-c2nccnc2N[C@@H]2CCN(Cc3ccccc3)C2)cc(OC)c1OC [CBK037651] | 96.7% |
| CCCCN(C)c1nccnc1-c1cccc(O)c1 [CBK037652] | 99% |
| COc1ccc(Nc2ccc(-c3ccc(C(=O)O)cc3)cn2)cc1 [CBK037654] | 95.2% |
| O=c1[nH]ccn1CCNc1ccc(-c2cccc3cccnc23)cn1 [CBK037658] | 79.2% |
| c1cncc(-c2ccc(N3CCN(CCN4CCCC4)CC3)nc2)c1 [CBK037661] | 108% |
| COc1ncc(-c2nccnc2NCc2ccc(F)cc2)c(OC)n1 [CBK037668] | 96.7% |
| CC(O)CNc1nccnc1-c1ccc(S(C)(=O)=O)cc1 (stereo not drawn) [CBK037669] | 96.1% |

| Structure (SMILES) | viability at 28.5 h, 10 µM |
| --- | --- |
| COc1ccc(-c2cccc(N3CCN(CCN4CCCC4)CC3)n2)cc1OC [CBK037680] | 84.9% |
| COc1cccc(Nc2cc(-c3ccc(N4CCOCC4)cc3)ncn2)c1OC [CBK037687] | 94.7% |
| O=C(c1ccco1)N1CCN(c2cc(-c3ccsc3)ncn2)CC1 [CBK037690] | 100% |
| COc1cc(Nc2cccc(-c3cccc(NC(C)=O)c3)n2)cc(OC)c1OC [CBK037698] | 111% |
| CC(=O)Nc1cccc(-c2ccc(Nc3cccnc3)nc2)c1 [CBK037703] | 96.7% |
| COc1ncc(-c2cc(N3CCN(c4ccccn4)CC3)ncn2)c(OC)n1 [CBK037707] | 102% |
| COc1cc(C)c(Nc2cc(-c3ccc4c(c3)OCO4)ncn2)cc1OC [CBK037711] | 98.9% |
| COc1cc(Nc2cc(-c3cccc(N)c3)ncn2)cc(OC)c1OC [CBK037713] | 117% |
| COc1ncc(-c2ccc(NCCn3cc[nH]c3=O)nc2)c(OC)n1 [CBK037719] | 88.9% |
| COc1cncc(-c2ccc(N3CCN(CCN(C)C)CC3)nc2)c1 [CBK037720] | 88.9% |
| CN(C)c1cccc(-c2ccc(Nc3cccc(NC(=O)c4ccncc4)c3)nc2)c1 [CBK037721] | 58.7% |
| COc1ncc(-c2cccc(NCC(c3cccnc3)N(C)C)n2)c(OC)n1 (stereo not drawn) [CBK037723] | 104% |
| COc1cc(C)c(Nc2cccc(/C=C/c3ccccc3)n2)cc1OC [CBK037725] | 102% |
| O=c1[nH]ccn1CCNc1cc(-c2cccc3oc4ccccc4c23)ncn1 [CBK037726] | 102% |
| c1ccc(CN2CCN(c3ccc(Nc4cc(-c5ccncc5)ncn4)cc3)CC2)cc1 [CBK037727] | 92.3% |
| c1ccc(Oc2ccccc2-c2cc(N3CCC(N4CCCCC4)CC3)ncn2)cc1 [CBK037728] | 88.7% |
| FC(F)(F)Oc1ccc(-c2cc(NCCc3ccccn3)ncn2)cc1 [CBK037732] | 98.2% |
| CN(C)c1cccc(-c2ccc(Nc3ccc(N4CCOCC4)cc3)nc2)c1 [CBK037735] | 92.2% |
| Cc1ccc(-c2ccc(Nc3ccc(Oc4ccccc4)cc3)nc2)cc1C [CBK037740] | 92.7% |
| COc1cncc(-c2cccc(NCC(c3cccnc3)N(C)C)n2)c1 (stereo not drawn) [CBK037741] | 93.6% |
| c1cncc(Nc2cccc(-c3ccco3)n2)c1 [CBK037742] | 100% |
| COc1ccc(Nc2ccc(-c3ccc4ccccc4c3)cn2)cn1 [CBK037744] | 88.6% |
| CCCNc1cc(-c2cccc(Cl)c2)nc2ccnn12 [CBK037747] | 112% |

| Structure (SMILES) | viability at 28.5 h, 10 µM |
| --- | --- |
| COc1ccc(-c2cc(N3CCC(N4CCCCC4)CC3)ncn2)cc1OC [CBK037752] | 90% |
| COc1cc(C)c(Nc2cc(-c3cccnc3)ncn2)cc1OC [CBK037754] | 102% |
| O=C(NCCO)c1cccc(-c2cncc(N3CCCCC3CCO)n2)c1 (stereo not drawn) [CBK037759] | 104% |
| CCN(CCO)c1ccc(Nc2cc(-c3ccc(C#N)cc3)ncn2)cc1 [CBK037764] | 87.9% |
| c1cc(N2CCN(CCN3CCCC3)CC2)ncc1-c1ccc2c(c1)OCO2 [CBK037769] | 95.1% |
| COc1cncc(-c2ccc(Nc3ccc(OC)nc3)nc2)c1 [CBK037773] | 103% |
| CCCC/C=C/c1ccc(Nc2ccc3c(c2)OCCO3)nc1 [CBK037774] | 93.3% |
| COc1ccc(C(=O)OC(C)(C)C)c(-c2cncc(N3CCCCC3CCO)n2)c1 (stereo not drawn) [CBK037786] | 104% |
| O=C(O)CCc1ccc(-c2ccc(N3CCN(CCN4CCCC4)CC3)nc2)cc1 [CBK037796] | 103% |
| Cc1ccc(-c2cccc(N3CCN(CCN4CCCC4)CC3)n2)cc1C [CBK037799] | 113% |
| c1ccc(-c2ccc(Nc3ccc4c(c3)OCCO4)nc2)cc1 [CBK037802] | 98.3% |
| N#Cc1cccc(Nc2cncc(-c3cccc(C(=O)NCCO)c3)n2)c1 [CBK037810] | 97.1% |
| N#Cc1ccc(-c2cc(N3CCN(C(=O)c4ccco4)CC3)ncn2)cc1 [CBK037813] | 98.2% |
| c1ccc2c(-c3cc(Nc4ccc5[nH]ccc5c4)ncn3)cccc2c1 [CBK037815] | 42.9% |
| O=C(c1ccco1)N1CCN(c2cc(-c3ccccc3Oc3ccccc3)ncn2)CC1 [CBK037817] | 96.8% |
| CC(=O)Nc1cccc(-c2cncc(NCCc3c[nH]c4ccccc34)n2)c1 [CBK037820] | 97.9% |
| O=C(O)CCc1ccc(-c2cc(N3CCN(c4ccccn4)CC3)ncn2)cc1 [CBK037821] | 105% |
| Nc1ccc(C(=O)Nc2ccc(Nc3cc(-c4cccnc4)ncn3)cc2)cc1 [CBK037823] | 94.6% |
| CN(C)c1cccc(-c2cc(N3CCN(c4ccccn4)CC3)ncn2)c1 [CBK037825] | 104% |
| CCCC/C=C/c1cncc(NC2CCC(O)CC2)n1 (stereo not drawn) [CBK037840] | 105% |
| O=C(c1ccco1)N1CCN(c2cc(-c3ccc(OCc4ccccc4)cc3)ncn2)CC1 [CBK037844] | 97.6% |
| O=C(O)c1cccc(-c2cncc(NCCCN3CCOCC3)n2)c1 [CBK037850] | 104% |
| OCc1ccccc1-c1cncc(NCCc2c[nH]c3ccccc23)n1 [CBK037852] | 93.2% |

| Structure (SMILES) | viability at 28.5 h, 10 µM |
| --- | --- |
| CC(C)(CO)CNc1cncc(-c2cccc(Cl)c2)n1 [CBK037862] | 102% |
| c1ccc(CNc2nc(-c3ccsc3)cn3ccnc23)cc1 [CBK037868] | 88% |
| CN(C)CCN(C)c1nc(-c2ccc(C(=O)O)cc2)cn2ccnc12 [CBK037880] | 96.7% |
| CC(C)(CO)CNc1cncc(-c2cccnc2)n1 [CBK037881] | 89.8% |
| CCC(CO)Nc1cncc(-c2cc(OC)c(OC)c(OC)c2)n1 (stereo not drawn) [CBK037882] | 98.9% |
| NC1CCC(Nc2cncc(-c3ccc(F)c(Cl)c3)n2)CC1 (stereo not drawn) [CBK037893] | 99.6% |
| CN(C)c1ccc(-c2cn3ccnc3c(NC3CC3)n2)cc1 [CBK037894] | 103% |
| COc1cc(-c2cn3ccnc3c(N3CCN(c4ccncc4)CC3)n2)cc(OC)c1OC [CBK037896] | 86.6% |
| c1ccc2cc(-c3cncc(NCc4ccncc4)n3)ccc2c1 [CBK037899] | 92.2% |
| COc1cncc(-c2cncc(NCCCN3CCOCC3)n2)c1 [CBK037902] | 84% |
| OCCC1CCCCN1c1cncc(-c2cccc(Cl)c2)n1 (stereo not drawn) [CBK037906] | 108% |
| c1cnc2c(-c3cn4ccnc4c(NC4CC4)n3)cccc2c1 [CBK037911] | 111% |
| O=C(O)c1cccc(-c2cncc(NCc3ccncc3)n2)c1 [CBK037915] | 106% |
| CCCC/C=C/c1cncc(N2CCN(C(=O)c3ccco3)CC2)n1 [CBK037918] | 91.3% |
| COc1ccc(C(C)C)cc1-c1cncc(N2CCN(c3ccccc3C#N)CC2)n1 [CBK037927] | 98.8% |
| OCCN1CCN(c2nc(C3CCOC3)cn3ccnc23)CC1 (stereo not drawn) [CBK037931] | 98.5% |
| CC(C)c1ccc(-c2cncc(NCCCO)n2)cc1 [CBK037937] | 106% |
| COc1ncc(-c2cncc(NCCO)n2)c(OC)n1 [CBK037939] | 106% |
| OCc1cccc(-c2cncc(NCCc3cccnc3)n2)c1 [CBK037946] | 98.8% |
| CN(C)CCN(C)c1nc(-c2cc(C(F)(F)F)cc(C(F)(F)F)c2)cn2ccnc12 [CBK037971] | 104% |
| CC(=O)Nc1cccc(-c2nccnc2NCc2ccc3c(c2)OCO3)c1 [CBK037972] | 97.1% |
